This note sets out measurements from patent US12570655B2, “Cysteine covalent modifiers of AKT1 and uses thereof” (Terremoto Biosciences, Inc., priority 2023, dated 2026).

Like-named read-outs stand apart in the source and are kept apart here.

Common to all, as to assay type: cell-based
Assay [1] has as its target T1, AKT1 WT (Homo sapiens, UniProt P31749).
T1 construct: expressed in transfected cells; host or cells: HEK293
The assay is described as follows: Live cell AKT1 WT target engagement by NanoBRET competitive probe displacement. To be noted: HEK293 cells transfected with kinase-NanoLuciferase fusion, 2 h at 37° C. The procedure, abridged:
(§1)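 Steps: overnight transfection of HEK293 with kinase-NanoLuc plasmids; addition of compound dilutions and tracer (~EC50); 2 h incubation at 37 °C; substrate plus extracellular luciferase inhibitor; luminescence at 460 and 600 nm. IC50 values came from fitting the BRET ratio to a Hill equation.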
Background: In BRET a luciferase serves as donor, and the signal depends on an acceptor being close.

Assay [2] concerns LAPC4 prostate cancer cells. The assay is described as follows: Antiproliferative effects in LAPC4 cells (CellTiter Glo). To be noted: LAPC4 cells (AKT1 E17K allele), read-out: LAPC4 proliferation IC50. The procedure, abridged:
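Growth inhibition is gauged by intracellular ATP content, measured with CellTiter Glo 72 h after compound addition to 1,000 seeded cells per well. IC50 derives from a Hill equation fit.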
In general terms: In ATP-based viability assays light output follows the ATP content of the culture.

The target of assay [3] is T2, AKT1 E17K (Homo sapiens, UniProt P31749, E17K).
T2 construct: expressed in transfected cells; host or cells: HEK293
Briefly: Live cell AKT1 E17K target engagement by NanoBRET competitive probe displacement. To be noted: HEK293 cells transfected with kinase-NanoLuciferase fusion, 2 h at 37° C. In outline: as §1

Assay [4] has as its target T3, AKT2 (Homo sapiens, UniProt P31751).
T3 construct: expressed in transfected cells; host or cells: HEK293
Briefly: Live cell AKT2 target engagement by NanoBRET competitive probe displacement. The note with it: HEK293 cells transfected with kinase-NanoLuciferase fusion, 2 h at 37° C. The procedure, abridged: as §1

T3 sequence (P31751 whole entry): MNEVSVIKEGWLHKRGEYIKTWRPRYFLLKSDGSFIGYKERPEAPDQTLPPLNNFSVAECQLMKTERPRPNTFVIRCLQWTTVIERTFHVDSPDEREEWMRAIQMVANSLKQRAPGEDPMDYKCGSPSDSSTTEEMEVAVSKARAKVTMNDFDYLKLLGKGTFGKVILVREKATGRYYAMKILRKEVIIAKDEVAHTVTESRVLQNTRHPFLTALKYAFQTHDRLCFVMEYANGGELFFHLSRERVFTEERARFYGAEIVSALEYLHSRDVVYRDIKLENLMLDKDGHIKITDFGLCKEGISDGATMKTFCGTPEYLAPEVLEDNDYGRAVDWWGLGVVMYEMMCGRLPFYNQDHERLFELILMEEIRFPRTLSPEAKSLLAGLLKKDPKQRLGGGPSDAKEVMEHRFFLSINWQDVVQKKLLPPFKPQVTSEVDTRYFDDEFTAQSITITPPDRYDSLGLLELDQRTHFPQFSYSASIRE
T1 sequence (P31749 whole entry): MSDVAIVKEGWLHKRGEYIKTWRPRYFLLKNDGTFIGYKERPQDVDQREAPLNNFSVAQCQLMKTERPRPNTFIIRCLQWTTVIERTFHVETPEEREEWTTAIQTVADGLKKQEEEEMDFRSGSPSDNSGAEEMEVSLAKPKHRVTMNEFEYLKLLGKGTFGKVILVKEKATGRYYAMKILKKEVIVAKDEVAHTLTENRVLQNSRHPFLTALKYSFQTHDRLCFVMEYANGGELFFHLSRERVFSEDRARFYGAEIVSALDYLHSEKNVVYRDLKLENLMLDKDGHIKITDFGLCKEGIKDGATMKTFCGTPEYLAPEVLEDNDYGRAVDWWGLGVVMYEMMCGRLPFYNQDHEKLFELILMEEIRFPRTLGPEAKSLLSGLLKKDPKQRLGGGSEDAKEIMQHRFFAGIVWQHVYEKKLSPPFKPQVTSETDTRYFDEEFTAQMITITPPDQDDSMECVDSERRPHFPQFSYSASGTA
T2 sequence (P31749 whole entry E17K): as the sequence (P31749 whole entry) above, with E17K counted along it

As to `C=CC(=O)N1CCC(N[C@H]2CCCc3cc(-n4c(-c5cccnc5N)nc5ccc(-n6cccn6)nc54)ccc32)CC1` [Example 154, (S)-1-(4-((6-(2-(2-aminopyridin-3-yl)-5-(1H-pyrazol-1-yl)-3H-imidazo[4,5-b]pyridin-3-yl)-1,2,3,4-tetrahydronaphthalen-1-yl)amino)piperidin-1-yl)prop-2-en-1-one], the IC50 is 301 nM in assay [1]; > 10000 nM in assay [2] (Homo sapiens, LAPC4, 72 h); > 1000 nM in assay [3]; > 10000 nM in assay [4].
With `C=CC(=O)N1CCC(N[C@H]2CCc3cc(-n4c(-c5cccnc5N)nc5ccc(-n6cccn6)nc54)ccc32)C(C)C1` (single isomer, unassigned) [Example 102, 1-((3*,4*)-4-(((S)-5-(2-(2-aminopyridin-3-yl)-5-(1H-pyrazol-1-yl)-3H-imidazo[4,5-b]pyridin-3-yl)-2,3-dihydro-1H-inden-1-yl)amino)-3-methylpiperidin-1-yl)prop-2-en-1-one], the IC50 is 8.09 nM in assay [1], 147 nM in assay [2] (72 h), 35.4 nM in assay [3] and 101 nM in assay [4].
As for `C=CC(=O)N(C)CCCN[C@H]1CCc2cc(-n3c(-c4cccnc4N)nc4ccc(-n5cccn5)nc43)ccc21` [Example 166, (S)-N-(3-((5-(2-(2-aminopyridin-3-yl)-5-(1H-pyrazol-1-yl)-3H-imidazo[4,5-b]pyridin-3-yl)-2,3-dihydro-1H-inden-1-yl)amino)propyl)-N-methylacrylamide], the IC50 in assay [1] was 21.9 nM; in assay [2] (Homo sapiens, LAPC4, 72 h), 116 nM; in assay [3] it was 74 nM; in assay [4], 257 nM.
For `C=CC(=O)N1CCC(N[C@H]2CCc3cc(-n4c(-c5ccccc5)nc5ccc(C6CC6)nc54)ccc32)CC1` [Example 246, 1-(4-{[(1S)-5-{5-cyclopropyl-2-phenylimidazo[4,5-b]pyridin-3-yl}-2,3-dihydro-1H-inden-1-yl]amino}piperidin-1-yl)prop-2-en-1-one], the IC50 in assay [1] came out at 2510 nM; in assay [2] (Homo sapiens, LAPC4, 72 h), 1600 nM; in assay [3] it was 65.6 nM; in assay [4], 711 nM.
`C=CC(=O)N1CCC(N[C@H]2CCc3cc(-n4c(-c5cccnc5N)nc5ccc(N6CC[C@H](F)C6)nc54)ccc32)CC1` [Example 226, 1-(4-{[(1S)-5-[2-(2-aminopyridin-3-yl)-5-[(3S)-3-fluoropyrrolidin-1-yl]imidazo[4,5-b]pyridin-3-yl]-2,3-dihydro-1H-inden-1-yl]amino}piperidin-1-yl)prop-2-en-1-one]: the IC50 in assay [1] was determined as 105 nM; in assay [2] (Homo sapiens, LAPC4, 72 h), 276 nM; in assay [3], 22.5 nM; in assay [4], 68.9 nM.
For `C=CC(=O)N1CCc2cccc(C(=O)N[C@H]3CCc4cc(-n5c(-c6cccnc6N)nc6ccc(-n7cccn7)nc65)ccc43)c21` [Example 10, N-[(1S)-5-[2-(2-aminopyridin-3-yl)-5-(pyrazol-1-yl)imidazo[4,5-b]pyridin-3-yl]-2,3-dihydro-1H-inden-1-yl]1-(prop-2-enoyl)-2,3-dihydroindole-7-carboxamide], in that order: 121 nM, 1860 nM, > 1000 nM and 1470 nM.
Turning to `C=CC(=O)N1CCC(N[C@H]2CCc3cc(-n4c(-c5cccnc5N)nc5ccc(-c6cnn(C)n6)nc54)ccc32)CC1` [Example 160, 1-(4-{[(1S)-5-[2-(2-aminopyridin-3-yl)-5-(2-methyl-1,2,3-triazol-4-yl)imidazo[4,5-b]pyridin-3-yl]-2,3-dihydro-1H-inden-1-yl]amino}piperidin-1-yl)prop-2-en-1-one], the IC50 in assay [1] worked out at 9.31 nM; in assay [2] (Homo sapiens, LAPC4, 72 h) it was 27.4 nM; in assay [3], 26.9 nM; in assay [4], 29.6 nM.
Turning to `C#CC1CC(N[C@H]2CCc3cc(-n4c(-c5cccnc5N)nc5ccc(-n6cccn6)nc54)ccc32)CCN1C(=O)C=C` (single isomer, unassigned) [Example 112, 1-((2*,4*)-4-(((S)-5-(2-(2-aminopyridin-3-yl)-5-(1H-pyrazol-1-yl)-3H-imidazo[4,5-b]pyridin-3-yl)-2,3-dihydro-1H-inden-1-yl)amino)-2-ethynylpiperidin-1-yl)prop-2-en-1-one], the IC50 in assay [1] is 9.52 nM; in assay [2] (72 h), 11.8 nM; in assay [3] it was 8.06 nM; in assay [4] it was 17.6 nM.
For `C=CC(=O)N1C[C@H]2COC[C@@H](C1)C2N[C@H]1CCc2cc(-n3c(-c4cccnc4N)nc4ccc(-n5cccn5)nc43)ccc21` (single isomer, unassigned) [Example 73, 1-((1R,5S,9*)-9-(((S)-5-(2-(2-aminopyridin-3-yl)-5-(1H-pyrazol-1-yl)-3H-imidazo[4,5-b]pyridin-3-yl)-2,3-dihydro-1H-inden-1-yl)amino)-3-oxa-7-azabicyclo[3.3.1]nonan-7-yl)prop-2-en-1-one], in that order: 16 nM, 74.4 nM, 19 nM and 86.3 nM.
On to `C=CC(=O)Nc1cc(O)ccc1C(=O)N[C@H]1CCc2cc(-n3c(-c4cccnc4N)nc4ccc(-n5cccn5)nc43)ccc21` [Example 70, N-[(1S)-5-[2-(2-aminopyridin-3-yl)-5-(pyrazol-1-yl)imidazo[4,5-b]pyridin-3-yl]-2,3-dihydro-1H-inden-1-yl]-4-hydroxy-2-(prop-2-enamido)benzamide], for which the IC50 in assay [1] came out at 83.7 nM; in assay [2] (Homo sapiens, LAPC4, 72 h), 1040 nM; in assay [3], 288 nM; in assay [4], 1340 nM.
Consider `C=CC(=O)N1CCN(N(C)C2CCc3cc(-n4c(-c5cccnc5N)nc5ccc(-n6cccn6)nc54)ccc32)CC1` (single isomer, unassigned) [Example 180, 1-(4-{[(1*)-5-[2-(2-aminopyridin-3-yl)-5-(pyrazol-1-yl)imidazo[4,5-b]pyridin-3-yl]-2,3-dihydro-1H-inden-1-yl](methyl)amino}piperazin-1-yl)prop-2-en-1-one], for which the IC50 was found to be 244 nM in assay [1], 625 nM in assay [2] (72 h), 18.6 nM in assay [3] and 160 nM in assay [4].
`C=CC(=O)N1CCC(N[C@H]2CCc3cc(-n4c(-c5cccnc5N)nc5ccc(N6CCC(F)(F)CC6)nc54)ccc32)CC1` [Example 186, 1-(4-{[(1S)-5-[2-(2-aminopyridin-3-yl)-5-(4,4-difluoropiperidin-1-yl)imidazo[4,5-b]pyridin-3-yl]-2,3-dihydro-1H-inden-1-yl]amino}piperidin-1-yl)prop-2-en-1-one]: the IC50 was 877 nM in assay [1]; 801 nM in assay [2] (Homo sapiens, LAPC4, 72 h); 30.6 nM in assay [3]; 954 nM in assay [4].
As for `C=C(F)C(=O)NCc1ccccc1C(=O)N[C@H]1CCc2cc(-n3c(-c4cccnc4N)nc4ccc(-n5cccn5)nc43)ccc21` [Example 264, N-[(1S)-5-[2-(2-aminopyridin-3-yl)-5-(pyrazol-1-yl)imidazo[4,5-b]pyridin-3-yl]-2,3-dihydro-1H-inden-1-yl]-2-[(2-fluoroprop-2-enamido)methyl]benzamide], the IC50 worked out at 937 nM in assay [1]; 1330 nM in assay [2] (Homo sapiens, LAPC4, 72 h); 27.8 nM in assay [3]; 171 nM in assay [4].
On to `C=CC(=O)N1CCC(N[C@@H]2c3ccc(-n4c(-c5cccnc5N)nc5ccc(-n6ccc(C7CC7)n6)nc54)cc3CC2F)CC1` (single isomer, unassigned) [Example 297, 1-(4-(((1R,2*)-5-(2-(2-aminopyridin-3-yl)-5-(3-cyclopropyl-1H-pyrazol-1-yl)-3H-imidazo[4,5-b]pyridin-3-yl)-2-fluoro-2,3-dihydro-1H-inden-1-yl)amino)piperidin-1-yl)prop-2-en-1-one], for which the IC50 is 588 nM in assay [1]; 509 nM in assay [2] (Homo sapiens, LAPC4, 72 h); 23.8 nM in assay [3]; 108 nM in assay [4].
In the case of `C=CC(=O)N1CCC(N[C@@H]2c3ccc(-n4c(-c5cccnc5N)nc5ccc(-n6cccn6)nc54)cc3CC2F)C(C)C1` (single isomer, unassigned) [Example 289, 1-[(3*,4*)-4-{[(1R,2*)-5-[2-(2-aminopyridin-3-yl)-5-(pyrazol-1-yl)imidazo[4,5-b]pyridin-3-yl]-2-fluoro-2,3-dihydro-1H-inden-1-yl]amino}-3-methylpiperidin-1-yl]prop-2-en-1-one], the IC50 was 799 nM in assay [1], 682 nM in assay [2] (72 h), 19.6 nM in assay [3] and 145 nM in assay [4].
As for `C=CC(=O)N1CCC(N[C@H]2CCc3cc(-n4c(-c5cccs5)nc5ccc(-n6cccn6)nc54)ccc32)CC1` [Example 239, 1-(4-{[(1S)-5-[5-(pyrazol-1-yl)-2-(thiophen-2-yl)imidazo[4,5-b]pyridin-3-yl]-2,3-dihydro-1H-inden-1-yl]amino}piperidin-1-yl)prop-2-en-1-one], the IC50 in assay [1] stood at 1450 nM; in assay [2] (Homo sapiens, LAPC4, 72 h) it was 1030 nM; in assay [3], 43.2 nM; in assay [4] it was 334 nM.
Consider `C=CC(=O)N1CCC(N[C@H]2CCc3cc(-n4c(-c5cccnc5N)nc5ccc(-n6cccn6)nc54)ccc32)C(OC)C1` (single isomer, unassigned) [Example 118, 1-((3*,4*)-4-(((S)-5-(2-(2-aminopyridin-3-yl)-5-(1H-pyrazol-1-yl)-3H-imidazo[4,5-b]pyridin-3-yl)-2,3-dihydro-1H-inden-1-yl)amino)-3-methoxypiperidin-1-yl)prop-2-en-1-one], for which the IC50 in assay [1] was determined as 21.3 nM; in assay [2] (72 h) it was 167 nM; in assay [3], 42 nM; in assay [4] it was 320 nM.
